Experiments:
Dihydrofolate reductase = target: T1, Dihydrofolate reductase (Homo sapiens, UniProt P00374); assay: Inhibition of human DHFR in presence of DHF and NADPH by UV-vis spectrometry by Lineweaver-Burk plot analysis
T1 sequence (P00374 whole entry): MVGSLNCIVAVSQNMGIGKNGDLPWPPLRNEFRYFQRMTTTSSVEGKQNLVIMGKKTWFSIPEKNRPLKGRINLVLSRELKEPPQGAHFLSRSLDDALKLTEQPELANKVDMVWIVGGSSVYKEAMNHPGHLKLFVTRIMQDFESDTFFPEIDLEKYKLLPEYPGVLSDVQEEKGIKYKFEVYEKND

[1] = Inhibition of Escherichia coli DHFR
[2] = Inhibition of Lactobacillus casei DHFR; design: species or system Lacticaseibacillus casei
[3] = Selectivity index, ratio of Ki for Lactobacillus casei DHFR to Ki for human DHFR
[4] = Selectivity index, ratio of Ki for Escherichia coli DHFR to Ki for human DHFR
[5] = target: Bifunctional purine biosynthesis protein ATIC (Homo sapiens, UniProt P31939); assay: Inhibition of AICAR transformylase (unknown origin)
Bifunctional purine biosynthesis protein ATIC, sequence (P31939 whole entry): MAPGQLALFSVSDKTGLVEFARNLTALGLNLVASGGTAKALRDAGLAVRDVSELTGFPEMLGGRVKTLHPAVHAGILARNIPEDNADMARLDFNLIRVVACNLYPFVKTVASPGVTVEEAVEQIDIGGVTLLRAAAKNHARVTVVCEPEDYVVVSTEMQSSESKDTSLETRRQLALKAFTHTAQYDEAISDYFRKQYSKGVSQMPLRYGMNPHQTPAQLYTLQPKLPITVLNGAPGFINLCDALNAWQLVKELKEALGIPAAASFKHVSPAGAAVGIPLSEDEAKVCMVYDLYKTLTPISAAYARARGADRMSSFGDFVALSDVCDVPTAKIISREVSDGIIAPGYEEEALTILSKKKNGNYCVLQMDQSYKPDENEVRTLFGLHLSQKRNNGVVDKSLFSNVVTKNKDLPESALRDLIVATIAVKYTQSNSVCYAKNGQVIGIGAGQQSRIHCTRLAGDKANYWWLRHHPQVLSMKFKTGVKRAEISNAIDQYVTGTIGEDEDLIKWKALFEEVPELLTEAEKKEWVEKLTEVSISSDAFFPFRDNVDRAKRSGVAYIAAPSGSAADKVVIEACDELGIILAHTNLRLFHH

Question: Which Ki (Dihydrofolate reductase) does the source give for `O=C(O)c1cc(-c2ccccc2)ccc1O` here?
Answer: Its Ki is 48 µM.

Question: Which Ki (Dihydrofolate reductase) does the source give for `COc1ccc2cc([C@@H](C)C(=O)O)ccc2c1` here?
Answer: Its Ki is 3400 µM.

Question: Which Ki (Dihydrofolate reductase) does the source give for `Nc1ccc(C(=O)N[C@@H](CCC(=O)O)C(=O)O)cc1` here?
Answer: The Ki was 180 µM.

Question: What does the source list for `Nc1ccnc(N)n1` [DIAMINOPYRIMIDINE]?
Answer: Ki [1]: 1800 µM; Ki [2]: 1800 µM; Ratio Ki [3]: 10; Ratio Ki [4]: 10

Question: For `O=C(O)Cc1ccccc1Nc1c(Cl)cccc1Cl` [DICLOFENAC], which Ki (Dihydrofolate reductase) is on record?
Answer: The Ki was 160 µM.

Question: For `O=C(O)c1cc(-c2ccc(F)cc2F)ccc1O` [DIFLUNISAL], which Ki (Dihydrofolate reductase) is on record?
Answer: The Ki was 34 µM.

Question: With `CCc1cccc2c3c([nH]c12)C(CC)(CC(=O)O)OCC3` (configuration not stated) [ETODOLAC] as the molecule, how does the Ki (Dihydrofolate reductase) read?
Answer: Its Ki is 1800 µM.

Question: With `O=C(O)CCC(=O)c1ccc(-c2ccccc2)cc1` [FENBUFEN] as the molecule, how does the Ki (Dihydrofolate reductase) read?
Answer: Its Ki is 360 µM.

Question: For `O=C(O)CNC(=O)c1ccccc1` [HIPPURIC ACID], which Ki (Dihydrofolate reductase) is on record?
Answer: Its Ki is 17000 µM.

Question: Which Ki (Dihydrofolate reductase) does the source give for `CC(C)Cc1ccc(C(C)C(=O)O)cc1` (configuration not stated) [IBUPROFEN] here?
Answer: The Ki was 560 µM.

Question: For `Cc1cccc(Nc2ccccc2C(=O)O)c1C` [MEFENAMIC ACID], which Ki (Dihydrofolate reductase) is on record?
Answer: The Ki was 72 µM.

Question: With `CN(C)C(=N)NC(=N)N` [METFORMIN] as the molecule, how does the Ki (Dihydrofolate reductase) read?
Answer: The Ki was 18000 µM.

Question: What about the IC50 [1] of the same molecule?
Answer: The IC50 was 17900 µM.

Question: For `COc1ccc2cc([C@H](C)C(=O)O)ccc2c1` [NAPROXEN], which Ki (Dihydrofolate reductase) is on record?
Answer: Its Ki is 7000 µM.

Question: What does the source list for `N=C(N)NC(=N)NCCc1ccccc1` [PHENFORMIN]?
Answer: Ki (Dihydrofolate reductase): 140 µM; IC50 [1]: 170 µM

Question: With `O=C(O)c1cc(/N=N/c2ccc(S(=O)(=O)Nc3ccccn3)cc2)ccc1O` [SULFASALAZINE] as the molecule, how does the Ki [5] read?
Answer: Its Ki is 22 µM.

Question: Which IC50 (Dihydrofolate reductase) does the source give for `N[C@@H](Cc1c[nH]c2ccccc12)C(=O)O` [TRYPTOPHAN] here?
Answer: The IC50 was 6500 µM.

Question: And the Ki (Dihydrofolate reductase)?
Answer: Its Ki is 2800 µM.

— ChEMBL document CHEMBL4619782, “The Structural Basis for Nonsteroidal Anti-Inflammatory Drug Inhibition of Human Dihydrofolate Reductase” (J Med Chem, 2020)
